{"source": "ChEMBL document CHEMBL4739718", "about": "“Substituted 5-cyclopropyl-1h-pyrazol-3-yl-amine derivatives as selective cdk12/13 inhibitors” (2020)", "key": {"[1]": {"target": "T1, Cyclin-dependent kinase 7 (Homo sapiens, UniProt P50613)", "T1 sequence (P50613 whole entry)": "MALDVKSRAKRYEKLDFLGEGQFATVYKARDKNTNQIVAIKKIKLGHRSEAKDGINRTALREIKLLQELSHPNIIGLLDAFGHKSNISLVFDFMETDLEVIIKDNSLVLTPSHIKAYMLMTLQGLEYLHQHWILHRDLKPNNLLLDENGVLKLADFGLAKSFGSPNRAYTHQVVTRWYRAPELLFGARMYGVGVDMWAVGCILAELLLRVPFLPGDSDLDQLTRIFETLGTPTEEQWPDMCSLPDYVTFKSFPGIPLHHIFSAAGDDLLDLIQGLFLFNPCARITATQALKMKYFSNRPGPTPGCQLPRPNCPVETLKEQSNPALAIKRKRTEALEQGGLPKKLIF", "experiment": "Inhibition of CDK7 (unknown origin) assessed as reduction in ATP-dependent phosphorylation of ULight-myelin basic protein substrate peptide incubated for 60 mins by LANCE TR-FRET assay"}, "[2]": {"target": "T1, Cyclin-dependent kinase 7", "experiment": "Binding affinity to CDK7 in human Jurkat cells assessed as target occupancy level incubated for 2 hrs by measuring Bio-THZ531 bound protein level by spectrophotometry based plate based target engagement assay", "format": "cell-based"}, "[3]": {"target": "Cyclin-dependent kinase 12 (Homo sapiens) (UniProt Q9NYV4)", "sequence (Q9NYV4 whole entry, looked up)": "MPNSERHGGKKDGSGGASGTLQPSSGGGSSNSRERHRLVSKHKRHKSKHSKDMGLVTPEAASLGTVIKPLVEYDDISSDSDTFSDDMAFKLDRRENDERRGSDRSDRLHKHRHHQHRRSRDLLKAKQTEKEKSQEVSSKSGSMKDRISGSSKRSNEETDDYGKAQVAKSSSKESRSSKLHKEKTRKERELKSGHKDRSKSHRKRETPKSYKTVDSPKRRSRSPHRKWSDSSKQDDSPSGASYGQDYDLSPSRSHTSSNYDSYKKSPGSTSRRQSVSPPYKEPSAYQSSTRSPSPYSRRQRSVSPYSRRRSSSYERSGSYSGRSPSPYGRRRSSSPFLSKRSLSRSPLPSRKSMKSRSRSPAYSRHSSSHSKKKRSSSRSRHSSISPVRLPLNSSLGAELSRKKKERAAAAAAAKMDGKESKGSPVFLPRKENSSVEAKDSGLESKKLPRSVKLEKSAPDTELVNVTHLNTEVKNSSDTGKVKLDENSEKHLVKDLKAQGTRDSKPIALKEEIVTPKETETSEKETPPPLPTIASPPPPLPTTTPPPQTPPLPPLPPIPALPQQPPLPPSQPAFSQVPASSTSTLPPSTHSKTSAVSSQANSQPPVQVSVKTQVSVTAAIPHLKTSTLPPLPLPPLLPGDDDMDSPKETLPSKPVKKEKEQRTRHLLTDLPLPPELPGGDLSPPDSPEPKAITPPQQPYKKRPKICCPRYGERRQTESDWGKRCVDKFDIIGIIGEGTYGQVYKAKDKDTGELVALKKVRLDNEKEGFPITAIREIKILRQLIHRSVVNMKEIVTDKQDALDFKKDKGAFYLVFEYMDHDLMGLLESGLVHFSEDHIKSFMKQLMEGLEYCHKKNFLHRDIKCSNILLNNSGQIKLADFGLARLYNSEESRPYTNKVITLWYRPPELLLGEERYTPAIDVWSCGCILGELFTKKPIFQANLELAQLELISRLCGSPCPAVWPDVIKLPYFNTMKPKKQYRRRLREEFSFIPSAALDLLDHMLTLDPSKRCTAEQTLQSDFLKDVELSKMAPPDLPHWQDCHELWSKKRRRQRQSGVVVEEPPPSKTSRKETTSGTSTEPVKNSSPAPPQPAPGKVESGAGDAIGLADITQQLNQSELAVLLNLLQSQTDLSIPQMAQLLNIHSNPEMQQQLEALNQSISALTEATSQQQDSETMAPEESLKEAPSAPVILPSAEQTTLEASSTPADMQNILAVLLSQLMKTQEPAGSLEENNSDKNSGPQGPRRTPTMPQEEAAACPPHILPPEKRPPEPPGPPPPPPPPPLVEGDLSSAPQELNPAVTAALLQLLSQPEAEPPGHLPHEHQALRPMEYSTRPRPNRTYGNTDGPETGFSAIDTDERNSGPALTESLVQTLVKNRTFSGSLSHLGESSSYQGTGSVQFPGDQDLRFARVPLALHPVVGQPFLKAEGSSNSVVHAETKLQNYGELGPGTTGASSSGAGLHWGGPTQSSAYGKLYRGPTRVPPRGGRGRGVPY", "experiment": "Binding affinity to CDK12 in human Jurkat cells assessed as target occupancy level incubated for 2 hrs by measuring Bio-THZ531 bound protein level by spectrophotometry based plate based target engagement assay", "format": "cell-based"}}}
{"smiles": "C=CC(=O)NCc1ccc(-c2ccc(C(C)C(=O)Nc3cc(C4CC4)[nH]n3)cn2)cn1", "note": "(stereo unspecified)", "values": [{"measurement": "IC50", "setting": "[1]", "value": "> 10", "unit": "µM"}]}
{"smiles": "C=CC(=O)NCc1ccc(-c2ccc([C@H](C)C(=O)Nc3cc(C4CC4)[nH]n3)cc2)cn1", "values": [{"measurement": "Occ50", "setting": "[2]", "value": "> 2", "unit": "µM"}, {"measurement": "Occ50", "setting": "[3]", "value": 0.022, "unit": "µM"}]}
{"smiles": "CC(C(=O)Nc1cc(C2CC2)[nH]n1)c1ccc(-c2ccc(NC(=O)/C=C/CN3CCOCC3)cc2)cc1", "note": "(stereo in doubt; 12)", "values": [{"measurement": "IC50", "setting": "[1]", "value": "> 10", "unit": "µM"}]}
{"smiles": "C=CC(=O)NCc1ccc(-c2ccc(C(C)C(=O)Nc3cc(C4CC4)[nH]n3)cc2)cn1", "note": "(stereo unspecified)", "values": [{"measurement": "Occ50", "setting": "[2]", "value": 0.61, "unit": "µM"}, {"measurement": "Occ50", "setting": "[3]", "value": 0.23, "unit": "µM"}]}
